{
  "source": "patent EP0351921A2",
  "about": "“Modified beta adrenergic receptor” (MERCK & CO. INC., priority 1988, dated 1990)",
  "key": {"[Glu¹¹³]βAR": {"target": "[Glu¹¹³]βAR (Mesocricetus auratus, UniProt P04274, D113E)", "sequence (P04274 whole entry D113E)": "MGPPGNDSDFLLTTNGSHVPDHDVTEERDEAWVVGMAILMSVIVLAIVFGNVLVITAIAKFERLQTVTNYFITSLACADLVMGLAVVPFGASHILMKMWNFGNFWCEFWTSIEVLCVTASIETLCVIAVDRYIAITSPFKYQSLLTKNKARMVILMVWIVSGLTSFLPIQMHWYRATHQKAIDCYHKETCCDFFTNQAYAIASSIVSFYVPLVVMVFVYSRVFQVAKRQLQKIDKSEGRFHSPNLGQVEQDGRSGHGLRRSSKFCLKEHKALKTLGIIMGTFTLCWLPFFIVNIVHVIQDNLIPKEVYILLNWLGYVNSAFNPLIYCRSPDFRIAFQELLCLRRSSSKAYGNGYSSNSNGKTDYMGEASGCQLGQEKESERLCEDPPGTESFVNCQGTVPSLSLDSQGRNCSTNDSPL", "assay": "Adenylyl cyclase stimulation in membranes of cell lines expressing the receptor", "settings": "for %NaF: (Glu^113)βAR, percentage of maximal stimulation by 10 mM NaF, Table 3"}, "[1]": {"target": "wild-type βAR ([Asp113]βAR) (Mesocricetus auratus, UniProt P04274)", "sequence (P04274 whole entry)": "as the sequence (P04274 whole entry D113E) above, with E113D counted along it", "assay": "Adenylyl cyclase stimulation in membranes of cell lines expressing the receptor", "settings": "for %NaF: (Asp^113)βAR, percentage of maximal stimulation by 10 mM NaF, Table 3; for maximal adenylyl cyclase stimulation (% of NaF): [Asp113]βAR, maximally effective concentration of the compound, relative to 10 mM NaF, Table 1"}, "[His¹¹³]βAR": {"target": "[His¹¹³]βAR (Mesocricetus auratus, UniProt P04274, D113H)", "sequence (P04274 whole entry D113H)": "as the sequence (P04274 whole entry D113E) above, with E113H counted along it", "settings": "ligand concentrations as high as 1 mM"}, "[Cys¹¹³]βAR": {"target": "[Cys¹¹³]βAR (Mesocricetus auratus, UniProt P04274, D113C)", "sequence (P04274 whole entry D113C)": "as the sequence (P04274 whole entry D113E) above, with E113C counted along it", "settings": "ligand concentrations as high as 1 mM"}, "[Arg¹¹³]βAR": {"target": "[Arg¹¹³]βAR (Mesocricetus auratus, UniProt P04274, D113R)", "sequence (P04274 whole entry D113R)": "as the sequence (P04274 whole entry D113E) above, with E113R counted along it", "settings": "ligand concentrations as high as 1 mM"}, "[LYS¹¹³]βAR": {"target": "[LYS¹¹³]βAR (Mesocricetus auratus, UniProt P04274, D113K)", "sequence (P04274 whole entry D113K)": "as the sequence (P04274 whole entry D113E) above, with E113K counted along it", "settings": "ligand concentrations as high as 1 mM"}, "[Asn113]βAR": {"target": "T1, [Asn113]βAR (Mesocricetus auratus, UniProt P04274, D113N)", "T1 construct": "pSVBAC contains the full length hamster β₂AR cDNA cloned into the EcoRI site of pSVL; expressed in transfected cells; host or cells: mouse L cells (clonal lines; membranes)", "T1 sequence (P04274 whole entry D113N)": "as the sequence (P04274 whole entry D113E) above, with E113N counted along it", "assay": "Adenylyl cyclase stimulation in membranes of cell lines expressing the receptor", "format": "biochemical, hamster", "settings": "for maximal adenylyl cyclase stimulation (% of NaF): [Asn113]βAR, maximally effective concentration of the compound, relative to 10 mM NaF, Table 1"}, "[2]": {"settings": "maximum concentration 10⁻⁴ M (*)"}, "[3]": {"settings": "maximum concentration 10⁻⁵ M (+)"}},
  "data": [
    {"smiles": "Cc1ccc(OCC(O)CNC(C)C)c2c1CCC2", "note": "(stereo not drawn) [Compound 3, 3-(7-methylindan-4-yloxy) -1-isopropylamino-2-propanol]", "values": [
      {"measurement": "%NaF", "setting": "[Glu¹¹³]βAR; maximum concentration 10⁻³ M", "result": 6, "unit": "%"},
      {"measurement": "%NaF", "setting": "[1]; maximum concentration 10⁻³ M", "result": 0, "unit": "%"}
    ]},
    {"smiles": "CC(C)NCC(O)c1ccc(O)c(O)c1", "note": "(stereo not drawn) [isoproterenol]", "values": [
      {"measurement": "decrease in affinity for the receptor", "setting": "[Glu¹¹³]βAR; substitution of Glu for Asp¹¹³, versus wild-type receptor", "result": 300, "unit": "fold"},
      {"measurement": "stimulation of adenylyl cyclase", "setting": "[His¹¹³]βAR", "result": "no stimulation"},
      {"measurement": "stimulation of adenylyl cyclase", "setting": "[Cys¹¹³]βAR", "result": "no stimulation"},
      {"measurement": "stimulation of adenylyl cyclase", "setting": "[Arg¹¹³]βAR", "result": "no stimulation"},
      {"measurement": "stimulation of adenylyl cyclase", "setting": "[LYS¹¹³]βAR", "result": "no stimulation"},
      {"measurement": "maximal adenylyl cyclase stimulation (% of NaF)", "setting": "[1]", "result": 100, "unit": "%"},
      {"measurement": "maximal adenylyl cyclase stimulation (% of NaF)", "setting": "[Asn113]βAR", "result": 100, "unit": "%"},
      {"measurement": "decrease in affinity for the receptor", "setting": "[Asn113]βAR; substitution of Asn for Asp¹¹³, versus wild-type receptor", "result": 5000, "unit": "fold"}
    ]},
    {"smiles": "COCCc1ccc(OCC(O)CNC(C)C)cc1", "note": "(stereo not drawn) [Compound 7, metoprolol]", "values": [
      {"measurement": "%NaF", "setting": "[Glu¹¹³]βAR; [2]", "result": "2^* %"},
      {"measurement": "%NaF", "setting": "[1]; [3]", "result": "0^+ %"}
    ]},
    {"smiles": "CC(C)NCC(O)COc1ccc(CC(N)=O)cc1", "note": "(stereo not drawn) [Compound 6, atenolol]", "values": [
      {"measurement": "%NaF", "setting": "[Glu¹¹³]βAR; [2]", "result": "0^* %"},
      {"measurement": "%NaF", "setting": "[1]; [3]", "result": "0^+ %"}
    ]},
    {"smiles": "N=C(N)NCC(O)c1ccc(O)c(O)c1", "note": "[L-612,158, 1-[2-(3,4-dihydroxyphenyl)-2-hydroxyethyl]guanidine]", "values": [
      {"measurement": "maximal adenylyl cyclase stimulation (% of NaF)", "setting": "[1]", "result": 11, "unit": "%"},
      {"measurement": "decrease in affinity of the interaction with the wild type βAR", "setting": "[1]; versus isoproterenol", "result": 1000, "unit": "fold"},
      {"measurement": "maximal adenylyl cyclase stimulation (% of NaF)", "setting": "[Asn113]βAR", "result": 50, "unit": "%"}
    ]},
    {"smiles": "CC(C)NCC(O)COc1ccccc1N1CCOCC1", "note": "(stereo not drawn) [Compound 9, 3-o-morpholinophenoxy-1-isopropylamino-2-propanol]", "values": [
      {"measurement": "%NaF", "setting": "[Glu¹¹³]βAR; maximum concentration 10⁻³ M", "result": 0, "unit": "%"},
      {"measurement": "%NaF", "setting": "[1]; maximum concentration 10⁻³ M", "result": 0, "unit": "%"}
    ]},
    {"smiles": "CC(C)NCC(O)COc1ccc(COCCOC(C)C)cc1", "note": "(stereo not drawn) [Compound 8, bisopropol]", "values": [
      {"measurement": "%NaF", "setting": "[Glu¹¹³]βAR; [2]", "result": "0^* %"},
      {"measurement": "%NaF", "setting": "[1]; [3]", "result": "0^+ %"}
    ]},
    {"smiles": "CC(C)NCC(O)COc1cccc2[nH]ccc12", "note": "(stereo not drawn) [Compound 2, pindolol]", "values": [
      {"measurement": "%NaF", "setting": "[Glu¹¹³]βAR; maximum concentration 10⁻³ M", "result": 35, "unit": "%"},
      {"measurement": "%NaF", "setting": "[1]; maximum concentration 10⁻³ M", "result": 0, "unit": "%"}
    ]},
    {"smiles": "CC(C)NCC(O)COc1ccc(-c2ncc[nH]2)cc1", "note": "(stereo not drawn) [Compound 5, 3-(4-(1-imidazol-2-yl)phenoxy)-1-isopropylamino-2-propanol]", "values": [
      {"measurement": "%NaF", "setting": "[Glu¹¹³]βAR; maximum concentration 10⁻³ M", "result": 0, "unit": "%"},
      {"measurement": "%NaF", "setting": "[1]; maximum concentration 10⁻³ M", "result": 0, "unit": "%"}
    ]},
    {"smiles": "CC(C)NCC(O)COc1ccccc1", "note": "(stereo not drawn) [Compound 4, 3-phenoxy-1-isopropylamino-2-propanol]", "values": [
      {"measurement": "%NaF", "setting": "[Glu¹¹³]βAR; maximum concentration 10⁻³ M", "result": 0, "unit": "%"},
      {"measurement": "%NaF", "setting": "[1]; maximum concentration 10⁻³ M", "result": 0, "unit": "%"}
    ]}
  ]
}
